# PubChem BioAssay (NCI)
#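 Test compounds were applied to cells in 96-well plates for 48 hours at 5 doses. At the TGI there is no net growth.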
# What was measured:
# Assay in all cases: DTP human tumour cell line panel, 48 h
# DMS 273 small cell lung = tested on: DMS 273 small cell lung
# SK-MEL-2 melanoma = tested on: SK-MEL-2 melanoma
# HOP-62 NSCLC = tested on: HOP-62 NSCLC
# LOX IMVI melanoma = tested on: LOX IMVI melanoma
# K-562 leukemia = tested on: K-562 leukemia
# HT29 colon = tested on: HT29 colon
# HOP-92 NSCLC = tested on: HOP-92 NSCLC
# SNB-78 CNS = tested on: SNB-78 CNS
# M14 melanoma = tested on: M14 melanoma
# HCT-116 colon = tested on: HCT-116 colon
# DMS 114 small cell lung = tested on: DMS 114 small cell lung
# UACC-62 melanoma = tested on: UACC-62 melanoma
# DLD-1 colon = tested on: DLD-1 colon
# OVCAR-4 ovarian = tested on: OVCAR-4 ovarian
# SN12C renal = tested on: SN12C renal
# SF-295 CNS = tested on: SF-295 CNS
# OVCAR-8 ovarian = tested on: OVCAR-8 ovarian
# TK-10 renal = tested on: TK-10 renal
# COLO 205 colon = tested on: COLO 205 colon
# ACHN renal = tested on: ACHN renal
# RXF 393 renal = tested on: RXF 393 renal
# SK-MEL-5 melanoma = tested on: SK-MEL-5 melanoma
# 786-0 renal = tested on: 786-0 renal
# OVCAR-5 ovarian = tested on: OVCAR-5 ovarian
# SW-620 colon = tested on: SW-620 colon
# NCI-H460 lung = tested on: NCI-H460 lung
# MOLT-4 leukemia = tested on: MOLT-4 leukemia
# SNB-75 CNS = tested on: SNB-75 CNS
# EKVX NSCLC = tested on: EKVX NSCLC
# CAKI-1 renal = tested on: CAKI-1 renal
# SF-268 CNS = tested on: SF-268 CNS
# CCRF-CEM leukemia = tested on: CCRF-CEM leukemia
# SR leukemia = tested on: SR leukemia
# XF 498 CNS = tested on: XF 498 CNS
# A549 NSCLC = tested on: A549 NSCLC
# IGROV1 ovarian = tested on: IGROV1 ovarian
# UO-31 renal = tested on: UO-31 renal
# KM12 colon = tested on: KM12 colon
# NCI-H23 lung = tested on: NCI-H23 lung
# NCI-H522 lung = tested on: NCI-H522 lung
# SF-539 CNS = tested on: SF-539 CNS
# SNB-19 CNS = tested on: SNB-19 CNS
# SK-OV-3 ovarian = tested on: SK-OV-3 ovarian
# NCI-H226 lung = tested on: NCI-H226 lung
# U251 CNS = tested on: U251 CNS
# OVCAR-3 ovarian = tested on: OVCAR-3 ovarian
# M19-MEL melanoma = tested on: M19-MEL melanoma
# HCC-2998 colon = tested on: HCC-2998 colon
# SK-MEL-28 melanoma = tested on: SK-MEL-28 melanoma
# LXFL 529 NSCLC = tested on: LXFL 529 NSCLC
# RPMI-8226 leukemia = tested on: RPMI-8226 leukemia
# HL-60(TB) leukemia = tested on: HL-60(TB) leukemia
# HOP-18 NSCLC = tested on: HOP-18 NSCLC
# KM20L2 colon = tested on: KM20L2 colon
# MDA-N = tested on: MDA-N
# UACC-257 melanoma = tested on: UACC-257 melanoma
# MALME-3M melanoma = tested on: MALME-3M melanoma
# DU-145 prostate = tested on: DU-145 prostate
# MDA-MB-435 = tested on: MDA-MB-435
# MDA-MB-231 breast = tested on: MDA-MB-231 breast
# MCF7 breast = tested on: MCF7 breast
# BT-549 breast = tested on: BT-549 breast
# HCT-15 colon = tested on: HCT-15 colon
# PC-3 prostate = tested on: PC-3 prostate
# A498 renal = tested on: A498 renal
# NCI/ADR-RES ovarian = tested on: NCI/ADR-RES ovarian
# T-47D breast = tested on: T-47D breast
# HS 578T breast = tested on: HS 578T breast
smiles,measurement,setting,value
O=c1c2cccnc2ncn1CCCN1CCCC1,TGI,DMS 273 small cell lung,> 100 µM
same,TGI,SK-MEL-2 melanoma,> 100 µM
same,TGI,HOP-62 NSCLC,> 100 µM
same,TGI,LOX IMVI melanoma,> 100 µM
same,TGI,K-562 leukemia,> 100 µM
same,TGI,HT29 colon,> 100 µM
same,TGI,HOP-92 NSCLC,> 100 µM
same,TGI,SNB-78 CNS,> 100 µM
same,TGI,M14 melanoma,> 100 µM
same,TGI,HCT-116 colon,> 100 µM
same,TGI,DMS 114 small cell lung,> 100 µM
same,TGI,UACC-62 melanoma,> 100 µM
same,TGI,DLD-1 colon,> 100 µM
same,TGI,OVCAR-4 ovarian,> 100 µM
same,TGI,SN12C renal,> 100 µM
same,TGI,SF-295 CNS,> 100 µM
same,TGI,OVCAR-8 ovarian,> 100 µM
same,TGI,TK-10 renal,> 100 µM
same,TGI,COLO 205 colon,> 100 µM
same,TGI,ACHN renal,> 100 µM
same,TGI,RXF 393 renal,> 100 µM
same,TGI,SK-MEL-5 melanoma,> 100 µM
same,TGI,786-0 renal,> 100 µM
same,TGI,OVCAR-5 ovarian,> 100 µM
same,TGI,SW-620 colon,> 100 µM
same,TGI,NCI-H460 lung,> 100 µM
same,TGI,MOLT-4 leukemia,> 100 µM
same,TGI,SNB-75 CNS,> 100 µM
same,TGI,EKVX NSCLC,> 100 µM
same,TGI,CAKI-1 renal,> 100 µM
same,TGI,SF-268 CNS,> 100 µM
same,TGI,CCRF-CEM leukemia,> 100 µM
same,TGI,SR leukemia,> 100 µM
same,TGI,XF 498 CNS,> 100 µM
same,TGI,A549 NSCLC,> 100 µM
same,TGI,IGROV1 ovarian,> 100 µM
same,TGI,UO-31 renal,> 100 µM
same,TGI,KM12 colon,> 100 µM
same,TGI,NCI-H23 lung,> 100 µM
same,TGI,NCI-H522 lung,> 100 µM
same,TGI,SF-539 CNS,> 100 µM
same,TGI,SNB-19 CNS,> 100 µM
same,TGI,SK-OV-3 ovarian,> 100 µM
same,TGI,NCI-H226 lung,> 100 µM
same,TGI,U251 CNS,> 100 µM
same,TGI,OVCAR-3 ovarian,> 100 µM
same,TGI,M19-MEL melanoma,> 100 µM
Cc1cc2c(cc1CO)N1Cc3cc(C)c(CO)cc3N(C2)C1,TGI,DMS 273 small cell lung,> 100 µM
same,TGI,HCC-2998 colon,> 100 µM
same,TGI,HOP-62 NSCLC,> 100 µM
same,TGI,LOX IMVI melanoma,> 100 µM
same,TGI,K-562 leukemia,> 100 µM
same,TGI,HT29 colon,> 100 µM
same,TGI,SNB-78 CNS,> 100 µM
same,TGI,M14 melanoma,> 100 µM
same,TGI,HCT-116 colon,> 100 µM
same,TGI,DMS 114 small cell lung,> 100 µM
same,TGI,UACC-62 melanoma,> 100 µM
same,TGI,DLD-1 colon,> 100 µM
same,TGI,OVCAR-4 ovarian,> 100 µM
same,TGI,SN12C renal,> 100 µM
same,TGI,SF-295 CNS,> 100 µM
same,TGI,SK-MEL-28 melanoma,> 100 µM
same,TGI,OVCAR-8 ovarian,> 100 µM
same,TGI,TK-10 renal,> 100 µM
same,TGI,COLO 205 colon,> 100 µM
same,TGI,RXF 393 renal,> 100 µM
same,TGI,SK-MEL-5 melanoma,> 100 µM
same,TGI,786-0 renal,> 100 µM
same,TGI,SW-620 colon,> 100 µM
same,TGI,NCI-H460 lung,> 100 µM
same,TGI,MOLT-4 leukemia,> 100 µM
same,TGI,SNB-75 CNS,> 100 µM
same,TGI,EKVX NSCLC,> 100 µM
same,TGI,LXFL 529 NSCLC,> 100 µM
same,TGI,RPMI-8226 leukemia,> 100 µM
same,TGI,SF-268 CNS,> 100 µM
same,TGI,CCRF-CEM leukemia,> 100 µM
same,TGI,XF 498 CNS,> 100 µM
same,TGI,A549 NSCLC,> 100 µM
same,TGI,IGROV1 ovarian,> 100 µM
same,TGI,KM12 colon,> 100 µM
same,TGI,NCI-H23 lung,> 100 µM
same,TGI,HL-60(TB) leukemia,> 100 µM
same,TGI,NCI-H522 lung,> 100 µM
same,TGI,SF-539 CNS,> 100 µM
same,TGI,SNB-19 CNS,> 100 µM
same,TGI,SK-OV-3 ovarian,> 100 µM
same,TGI,HOP-18 NSCLC,> 100 µM
same,TGI,NCI-H226 lung,> 100 µM
same,TGI,U251 CNS,> 100 µM
same,TGI,OVCAR-3 ovarian,> 100 µM
same,TGI,M19-MEL melanoma,> 100 µM
same,TGI,KM20L2 colon,> 100 µM
COc1ccc(C2C3=C(COC3=O)OC(C)(C)Oc3cc4c(cc32)OCO4)cc1OC (stereo not drawn),TGI,SK-MEL-2 melanoma,> 100 µM
same,TGI,HCC-2998 colon,> 100 µM
same,TGI,HOP-62 NSCLC,> 100 µM
same,TGI,LOX IMVI melanoma,> 100 µM
same,TGI,K-562 leukemia,> 95.7 µM
same,TGI,HT29 colon,> 100 µM
same,TGI,HOP-92 NSCLC,> 73.8 µM
same,TGI,M14 melanoma,> 80.3 µM
same,TGI,HCT-116 colon,> 92.3 µM
same,TGI,UACC-62 melanoma,> 75.4 µM
same,TGI,MDA-N,39.2 µM
same,TGI,OVCAR-4 ovarian,> 100 µM
same,TGI,SN12C renal,> 100 µM
same,TGI,SF-295 CNS,88.4 µM
same,TGI,SK-MEL-28 melanoma,> 100 µM
same,TGI,OVCAR-8 ovarian,> 100 µM
same,TGI,TK-10 renal,> 100 µM
same,TGI,COLO 205 colon,48.1 µM
same,TGI,ACHN renal,> 100 µM
same,TGI,RXF 393 renal,68.8 µM
same,TGI,UACC-257 melanoma,> 100 µM
same,TGI,SK-MEL-5 melanoma,> 74.3 µM
same,TGI,MALME-3M melanoma,> 100 µM
same,TGI,786-0 renal,> 100 µM
same,TGI,OVCAR-5 ovarian,> 100 µM
same,TGI,SW-620 colon,> 100 µM
same,TGI,NCI-H460 lung,> 100 µM
same,TGI,DU-145 prostate,> 100 µM
same,TGI,MOLT-4 leukemia,> 100 µM
same,TGI,MDA-MB-435,41.3 µM
same,TGI,SNB-75 CNS,24.8 µM
same,TGI,EKVX NSCLC,> 89.8 µM
same,TGI,MDA-MB-231 breast,> 84.1 µM
same,TGI,CAKI-1 renal,> 100 µM
same,TGI,RPMI-8226 leukemia,> 100 µM
same,TGI,MCF7 breast,> 90.9 µM
same,TGI,SF-268 CNS,> 31.6 µM
same,TGI,CCRF-CEM leukemia,> 100 µM
same,TGI,SR leukemia,> 100 µM
same,TGI,BT-549 breast,99.5 µM
same,TGI,A549 NSCLC,> 100 µM
same,TGI,HCT-15 colon,> 100 µM
same,TGI,PC-3 prostate,72.4 µM
same,TGI,IGROV1 ovarian,> 100 µM
same,TGI,UO-31 renal,> 100 µM
same,TGI,KM12 colon,67.2 µM
same,TGI,A498 renal,63.8 µM
same,TGI,NCI-H23 lung,> 100 µM
same,TGI,HL-60(TB) leukemia,> 87.9 µM
same,TGI,NCI-H522 lung,> 73.8 µM
same,TGI,SF-539 CNS,72.6 µM
same,TGI,NCI/ADR-RES ovarian,58.7 µM
same,TGI,SNB-19 CNS,> 100 µM
same,TGI,SK-OV-3 ovarian,> 100 µM
same,TGI,NCI-H226 lung,> 100 µM
same,TGI,U251 CNS,> 100 µM
same,TGI,OVCAR-3 ovarian,> 100 µM
same,TGI,T-47D breast,96.9 µM
same,TGI,HS 578T breast,> 100 µM
